Like-named read-outs stand apart in the source and are kept apart here.
Assays:
[1] = target: T1, recombinant HTLV-1 IN (Human T-cell leukemia virus 1, UniProt P03362); assay: In vitro integration strand transfer assay with HTLV-1 IN; format: biochemical; settings: for HTLV-1 IN strand transfer activity (No drug = 100): INSTI at 634 nM
T1 construct: made in house
Description: We used in vitro strand transfer assays to screen this small molecule library for its ability to inhibit recombinant HTLV-1 IN. The enzyme was incubated with an oligonucleotide vDNA donor mimic in the presence or absence of INSTIs and was allowed to react with a supercoiled plasmid mimicking target DNA. During the screening, the concentration of each compound was adjusted to 634 nM to provide optimal resolution of efficacy between well- and under-performing compounds.
The donor vDNA that mimics the 3′-processed LTR of HTLV-1 or STLV-1 DNA was preassembled by annealing the U5_S20Q_UP and U5_S20Q_B or MarB43_U5_S30UP or MarB43_U5_S30B oligonucleotides, respectively (Supplementary Table 4) in 100 mM Tris pH 7.4, 400 mM NaCl. For HTLV-1 IN, strand transfer reactions were conducted in a solution of 24.3 mM PIPES pH 6.0, 138.4 mM NaCl, 16.6 mM MgCl2, 5.8 μM ZnCl2, 12.7 mM DTT, 0.53 μM donor DNA and 4 μg of HTLV-1 IN[9],[39]. In brief, the reaction was incubated at RT for 15 min in the presence of an INSTI or dimethyl sulfoxide (DMSO) control and the reaction was started by the addition of 300 ng of pGEM-9Zf(-) supercoiled plasmid DNA. The reaction was incubated for 1 h at 37 °C and stopped by adding 0.5% SDS and 25 mM ethylenediaminetetraacetic acid (EDTA), pH 8.0.
Proteins were degraded by incubation with 30 μg of proteinase K (Roche) at 37 °C for 1 h. DNA was precipitated at −20 °C overnight in the presence of ethanol supplemented with 20 μg of glycogen and then resuspended in 1.5× agarose loading dye. The DNA products were separated by electrophoresis through 1.5% agarose gel and stained with ethidium bromide and imaged using the BioRad GelDox XR + imager. The data were analysed and the IC50 calculated as previously described. In brief, the DNA band that corresponds to the concerted integration product was quantified by densitometry in ImageLab 4.1 (Bio-Rad). All experiments were done in triplicate. Quantified data points were fitted to dose–response curves in Prism 9. The cumulative standard deviation for each drug was calculated as an average of the upper limit and lower limit values: Lowerlimit=IC50/10^logSE(IC50) Upperlimit=IC50×10^logSE(IC50)

[2] = test system: HIV-1; settings: HIV-1 infection model, read-out: HIV-1 EC50 ± stdev, cited from earlier work
[3] = test system: HTLV-1; assay: Alu-qPCR of integrated provirus in HTLV-1 infected Jurkat cells; format: cell-based; settings: normalized to GAPDH
Description: The HTLV-1 cell-to-cell infection was performed as previously described; Jurkat T cells were counted and diluted in complete RPMI to a final concentration of 0.25 × 10^6 cells/ml and pre-treated with INSTI drugs (final concentration ranging from 0.2 pM to 2 μM) or DMSO as a control for 24 h. MT-2 cells were resuspended in RPMI at a concentration of 2 × 10^6 cells/ml and subjected to a nonlethal γ-radiation dose of 400 Gy. Cells were resuspended at a concentration of 2 × 10^6 cells/ml in serum-free RPMI supplemented with the corresponding INSTI drug. Co-culture of 0.5 × 10^6 for each cell line was carried out for 16 h, after which cells were washed in PBS and resuspended in 1 ml of depletion buffer (PBS, 0.1% FBS and 2 mM EGTA). MT-2 cells were depleted from the culture by means of anti-CD25 magnetic beads (DynabeadsTM CD25, Thermo Fisher). Depletion efficiency was confirmed via flow cytometry as described previously. Jurkat cells were cultured for 2 weeks in complete RPMI supplemented with the drugs and genomic DNA was extracted (DNeasy kit, Qiagen) and stored at −20 °C for subsequent analysis. All the experiments were done in triplicate.
The PVL was measured as previously described[9],[53],[54]. Jurkat genomic DNA was quantified and diluted to a concentration of 5 ng/μL. Real-time qPCR analysis were conducted on 20 ng of gDNA to measure the level of HTLV-1 tax and gapdh genes (Supplementary Table 5). For the standard curve, the gDNA from an HTLV-1 naturally infected T-cell clone (clone 11.50, courtesy of professor Charles Bangham), which has one copy of tax and two of gapdh, was used. The integrated provirus copy number was calculated as follows: (tax copy numbers)/(2×gapdh copy number)[53], and normalised to the DMSO-treated control which was set to 100%. The PVL data were fitted to a dose–response curve in Prism 7 and the EC50 was calculated. Alu-PCR was performed as previously described in ref. [55]. In brief, the first PCR reaction was done with Phusion polymerase starting from 80 ng of gDNA using the ALU-specific primers (Alu-F/Gag-R). The nested PCR was run diluting the amplificated product 1:50. The reaction was done as a qPCR using Gag-specific primers (Gag-R/Gag-F) and the Luna SYBR dye reaction mix (New England Biolabs). The integrated provirus copy numbers were normalised to GAPDH and Jurkat cells treated with DMSO and infected with HTLV-1 were set to 100%. Experiments were done in triplicate. […]
Supplementary Figure 6 | Integrated provirus was quantified by Alu-qPCR.
Values were normalized to GAPDH. Uninfected represents uninfected Jurkat cells, acting as negative control. Condition without any drug present (DMSO) was set as 100%. Mean values and standard deviations are shown for n = three biologically independent experiments. P-values were calculated with respect to the DMSO control using the unpaired t-test with Welch’s correction in Prism 9. P-values are two-sided.

[4] = Replicate 1, read-out: HTLV-1 IN strand transfer IC50
[5] = Replicate 2, read-out: HTLV-1 IN strand transfer IC50
[6] = Replicate 3, read-out: HTLV-1 IN strand transfer IC50
[7] = integrase strand-transfer drug titration, n = 3, read-out: HTLV-1 IC50 ± stdev

T1 sequence (P03362 1168-1462): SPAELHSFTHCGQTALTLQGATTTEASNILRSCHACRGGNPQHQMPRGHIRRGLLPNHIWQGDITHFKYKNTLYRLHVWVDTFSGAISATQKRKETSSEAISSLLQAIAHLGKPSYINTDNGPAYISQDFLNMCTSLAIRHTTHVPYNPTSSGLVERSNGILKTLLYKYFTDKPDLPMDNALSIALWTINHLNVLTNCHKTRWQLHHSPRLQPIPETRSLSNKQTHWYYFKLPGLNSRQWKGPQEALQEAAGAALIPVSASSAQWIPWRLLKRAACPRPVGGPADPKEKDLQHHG

With `Nc1c(C(=O)NCc2ccc(F)cc2F)c(=O)n(O)c2ncc(CCCCCO)cc12` [XZ419, 4-amino-N-(2,4-difluorobenzyl)-1-hydroxy-6-(5-hydroxypentyl)-2-oxo-1,2-dihydro-1,8-naphthyridine-3-carboxamide] the “HTLV-1 IN strand transfer activity (No drug = 100)” value ([1]; Replicate 1) was 14.8861%, the “HTLV-1 IN strand transfer activity (No drug = 100)” value ([1]; Replicate 2) was 26.7311% and the “HTLV-1 IN strand transfer activity (No drug = 100)” value ([1]; Replicate 3) was 21.3921%. It also gave an IC50 [1, 4] of 173 nM, an IC50 [1, 5] of 249 nM and an IC50 [1, 6] of 269 nM. For the same compound, the IC50 [1, 7] was 226 ± 21 nM and the EC50 ([2]; supplementary ref 1) was 1.3 ± 0.2 nM.

For `Nc1c(C(=O)NCc2ccc(F)cc2F)c(=O)n(O)c2ncccc12` [XZ384, 4-amino-N-(2,4-difluorobenzyl)-1-hydroxy-2-oxo-1,2-dihydro-1,8-naphthyridine-3-carboxamide], the “HTLV-1 IN strand transfer activity (No drug = 100)” value ([1]; Replicate 1) was 12.8154%, the “HTLV-1 IN strand transfer activity (No drug = 100)” value ([1]; Replicate 2) was 24.1903% and the “HTLV-1 IN strand transfer activity (No drug = 100)” value ([1]; Replicate 3) was 23.5902%. It also gave an IC50 [1, 4] of 142 nM, an IC50 [1, 5] of 268 nM and an IC50 [1, 6] of 121 nM. The IC50 [1, 7] was 210 ± 34 nM, the “Integrated provirus by Alu-qPCR (DMSO = 100%)” value ([3]; Replicate 1) was 4.1902% and the “Integrated provirus by Alu-qPCR (DMSO = 100%)” value ([3]; Replicate 2) was 0.144%. The “Integrated provirus by Alu-qPCR (DMSO = 100%)” value ([3]; Replicate 3) was 1.628% and the EC50 ([2]; supplementary ref 1) was 1.1 ± 0.7 nM.

In the case of `Nc1c(C(=O)NCc2ccc(F)cc2F)c(=O)n(O)c2ncc(CCCCCCO)cc12` [XZ426, 4-amino-N-(2,4-difluorobenzyl)-1-hydroxy-6-(6-hydroxyhexyl)-2-oxo-1,2-dihydro-1,8-naphthyridine-3-carboxamide], the “HTLV-1 IN strand transfer activity (No drug = 100)” value ([1]; Replicate 1) is reported as 14.449%, the “HTLV-1 IN strand transfer activity (No drug = 100)” value ([1]; Replicate 2) is reported as 19.5833% and the “HTLV-1 IN strand transfer activity (No drug = 100)” value ([1]; Replicate 3) is reported as 19.9322%. It also gave an IC50 [1, 4] of 159 nM, an IC50 [1, 5] of 169 nM and an IC50 [1, 6] of 175 nM. The IC50 [1, 7] was 163 ± 27.9 nM and the EC50 ([2]; supplementary ref 1) was 2.3 ± 0.6 nM.

For `COC(=O)CCc1cnc2c(c1)c(N)c(C(=O)NCc1ccc(F)cc1F)c(=O)n2O` [XZ434, methyl 3-(5-amino-6-((2,4-difluorobenzyl)carbamoyl)-8-hydroxy-7-oxo-7,8-dihydro-1,8-naphthyridin-3-yl)propanoate], the “HTLV-1 IN strand transfer activity (No drug = 100)” value ([1]; Replicate 1) was 20.5794%, the “HTLV-1 IN strand transfer activity (No drug = 100)” value ([1]; Replicate 2) was 19.7322% and the “HTLV-1 IN strand transfer activity (No drug = 100)” value ([1]; Replicate 3) was 15.311%. The IC50 [1, 4] was 174 nM, the IC50 [1, 5] was 217 nM and the IC50 [1, 6] was 231 nM. For the same compound, the IC50 [1, 7] was 204 ± 34.1 nM, the “Integrated provirus by Alu-qPCR (DMSO = 100%)” value ([3]; Replicate 1) was 0.3355% and the “Integrated provirus by Alu-qPCR (DMSO = 100%)” value ([3]; Replicate 2) was 0.8375%. The “Integrated provirus by Alu-qPCR (DMSO = 100%)” value ([3]; Replicate 3) was 1.324e-5% and the EC50 ([2]; supplementary ref 14) was 0.67 ± 0.15 nM.

With `Nc1ccc(-c2ccc(Nc3cc(=O)n(O)c4ncccc34)cc2)cc1` [XZ460, 4-((4'-amino-[1,1'-biphenyl]-4-yl)amino)-1-hydroxy-1,8-naphthyridin-2(1H)-one] the “HTLV-1 IN strand transfer activity (No drug = 100)” value ([1]; Replicate 1) was 91.7662%, the “HTLV-1 IN strand transfer activity (No drug = 100)” value ([1]; Replicate 2) was 81.7265% and the “HTLV-1 IN strand transfer activity (No drug = 100)” value ([1]; Replicate 3) was 81.1342%.

In the case of `O=C(NCc1ccc(F)cc1F)c1c(O)c2cccnc2n(O)c1=O` [XZ351, N-(2,4-difluorobenzyl)-1,4-dihydroxy-2-oxo-1,2-dihydro-1,8-naphthyridine-3-carboxamide], the “HTLV-1 IN strand transfer activity (No drug = 100)” value ([1]; Replicate 1) is reported as 30.0691%, the “HTLV-1 IN strand transfer activity (No drug = 100)” value ([1]; Replicate 2) is reported as 57.1529% and the “HTLV-1 IN strand transfer activity (No drug = 100)” value ([1]; Replicate 3) is reported as 59.6295%.

In the case of `O=C1c2c(ccc(O)c2O)CN1Cc1ccc(F)c(Cl)c1` [XZ90, 2-(3-chloro-4-fluorobenzyl)-6,7-dihydroxyisoindolin-1-one], the “HTLV-1 IN strand transfer activity (No drug = 100)” value ([1]; Replicate 1) is reported as 47.6981%, the “HTLV-1 IN strand transfer activity (No drug = 100)” value ([1]; Replicate 2) is reported as 83.7072% and the “HTLV-1 IN strand transfer activity (No drug = 100)” value ([1]; Replicate 3) is reported as 92.5665%.

In the case of `[N-]=[N+]=NCc1cccc(C(=O)/C=C(\O)C(=O)O)c1` [XZ319, (Z)-4-(3-(azidomethyl)phenyl)-2-hydroxy-4-oxobut-2-enoic acid], the “HTLV-1 IN strand transfer activity (No drug = 100)” value ([1]; Replicate 1) is reported as 88.4055%, the “HTLV-1 IN strand transfer activity (No drug = 100)” value ([1]; Replicate 2) is reported as 92.5212% and the “HTLV-1 IN strand transfer activity (No drug = 100)” value ([1]; Replicate 3) is reported as 100.53%.

With `COC(=O)c1c(Nc2ccc(-c3ccc(N)cc3)cc2)c2cccnc2n(O)c1=O` [XZ456, methyl 4-((4'-amino-[1,1'-biphenyl]-4-yl)amino)-1-hydroxy-2-oxo-1,2-dihydro-1,8-naphthyridine-3-carboxylate] the “HTLV-1 IN strand transfer activity (No drug = 100)” value ([1]; Replicate 1) was 112.032%, the “HTLV-1 IN strand transfer activity (No drug = 100)” value ([1]; Replicate 2) was 94.791% and the “HTLV-1 IN strand transfer activity (No drug = 100)” value ([1]; Replicate 3) was 89.3626%.

For `CN(C)S(=O)(=O)c1cc(O)c(O)c2c1CN(Cc1ccc(F)c(Cl)c1)C2=O` [XZ259, 2-(3-chloro-4-fluorobenzyl)-6,7-dihydroxy-N,N-dimethyl-1-oxoisoindoline-4-sulfonamide], the “HTLV-1 IN strand transfer activity (No drug = 100)” value ([1]; Replicate 1) was 63.0889%, the “HTLV-1 IN strand transfer activity (No drug = 100)” value ([1]; Replicate 2) was 67.971% and the “HTLV-1 IN strand transfer activity (No drug = 100)” value ([1]; Replicate 3) was 68.9907%.
